Experimental data taken from EP0198522A1, “Heterocyclic herbicides” (SHELL INTERNATIONALE RESEARCH MAATSCHAPPIJ B.V., priority 1985, dated 1986).

Key:
Format in all cases: in vivo
maize, Zea mays [1] = experiment: Herbicidal activity, post-emergence foliar spray test; conditions: assessed visually twelve days after spraying, 0-9 scale, 0 = growth as untreated control, 9 = death
Description: (§1) To evaluate their herbicidal activity, compounds according to the invention were tested using as representative range of plants: maize, Zea mays (Mz); rice, Oryza sativa (R); barnyard grass, Echinochloa crusgalli (BG); oat, Avena sativa (0); linseed, Linum usitatissisum (L); mustard, Sinapsis alba (M); sugar beet, Beta vulgaris (SB) and soya bean, Glycine max (S).
(§2) The tests fall into two categories, pre-emergence and post-emergence. […] The post-emergence tests involved two types of test, viz., soil drench and foliar spray tests. In the soil drench tests the soil in which the seedling plants of the above species were growing was drenched with a liquid formulation containing a compound of the invention, and in the foliar spray tests the seedling plants were sprayed with such a formulation.
(§3) The soil used in the tests was a prepared horticultural loam.
(§4) These acetone solutions were diluted with water and the resulting formulations applied at dosage levels corresponding to 5 kg or 1 kg of active material per hectare in a volume equivalent to 600 litres per hectare in the soil spray and foliar spray test, and at a dosage of level equivalent to 10 kilograms of active material per hectare in a volume equivalent to approximately 3,000 litres per hectare in the soil drench tests.
(§5) In the pre-emexgence tests untreated sown soil and in the post-emergence tests untreated soil bearing seedling plants were used as controls.
(§6) The herbicidal effects of the test compounds were assessed visually twelve days after spraying the foliage and the soil, and thirteen days after drenching the soil and were recorded on a 0-9 scale. A rating 0 indicates growth as untreated control, a rating 9 indicates death. An increase of 1 unit on the linear scale approximates to a 10% increase in the level of effect.

[2] = system: barnyard grass, Echinochloa crusgalli; experiment: as above; conditions: assessed visually twelve days after spraying, 0-9 scale, 0 = growth as untreated control, 9 = death
Description: as §1, §2, §3, §4, §5, §6

oat, Avena sativa [3] = experiment: as above; conditions: assessed visually twelve days after spraying, 0-9 scale, 0 = growth as untreated control, 9 = death
Description: as §1, §2, §3, §4, §5, §6

soya bean, Glycine max [4] = experiment: as above; conditions: assessed visually twelve days after spraying, 0-9 scale, 0 = growth as untreated control, 9 = death
Description: as §1, §2, §3, §4, §5, §6

mustard, Sinapsis alba [5] = experiment: as above; conditions: assessed visually twelve days after spraying, 0-9 scale, 0 = growth as untreated control, 9 = death
Description: as §1, §2, §3, §4, §5, §6

rice, Oryza sativa [6] = experiment: as above; conditions: assessed visually twelve days after spraying, 0-9 scale, 0 = growth as untreated control, 9 = death
Description: as §1, §2, §3, §4, §5, §6

[7] = system: sugar beet, Beta vulgaris; experiment: as above; conditions: assessed visually twelve days after spraying, 0-9 scale, 0 = growth as untreated control, 9 = death
Description: as §1, §2, §3, §4, §5, §6

[8] = system: linseed, Linum usitatissisum; experiment: as above; conditions: assessed visually twelve days after spraying, 0-9 scale, 0 = growth as untreated control, 9 = death
Description: as §1, §2, §3, §4, §5, §6

maize, Zea mays [9] = experiment: Herbicidal activity, pre-emergence test (soil spray); conditions: assessed visually twelve days after spraying, 0-9 scale, 0 = growth as untreated control, 9 = death
Description: as §1, §2, §3, §4, §5, §6

[10] = system: barnyard grass, Echinochloa crusgalli; experiment: as above; conditions: assessed visually twelve days after spraying, 0-9 scale, 0 = growth as untreated control, 9 = death
Description: as §1, §2, §3, §4, §5, §6

oat, Avena sativa [11] = experiment: as above; conditions: assessed visually twelve days after spraying, 0-9 scale, 0 = growth as untreated control, 9 = death
Description: as §1, §2, §3, §4, §5, §6

soya bean, Glycine max [12] = experiment: as above; conditions: assessed visually twelve days after spraying, 0-9 scale, 0 = growth as untreated control, 9 = death
Description: as §1, §2, §3, §4, §5, §6

mustard, Sinapsis alba [13] = experiment: as above; conditions: assessed visually twelve days after spraying, 0-9 scale, 0 = growth as untreated control, 9 = death
Description: as §1, §2, §3, §4, §5, §6

rice, Oryza sativa [14] = experiment: as above; conditions: assessed visually twelve days after spraying, 0-9 scale, 0 = growth as untreated control, 9 = death
Description: as §1, §2, §3, §4, §5, §6

[15] = system: sugar beet, Beta vulgaris; experiment: as above; conditions: assessed visually twelve days after spraying, 0-9 scale, 0 = growth as untreated control, 9 = death
Description: as §1, §2, §3, §4, §5, §6

[16] = system: linseed, Linum usitatissisum; experiment: as above; conditions: assessed visually twelve days after spraying, 0-9 scale, 0 = growth as untreated control, 9 = death
Description: as §1, §2, §3, §4, §5, §6

maize, Zea mays [17] = experiment: Herbicidal activity, post-emergence soil drench test; conditions: 10 kg/ha soil drench; assessed visually thirteen days after drenching; 0-9 scale, 0 = growth as untreated control, 9 = death
Description: as §1, §2, §3, §4, §5, §6

[18] = system: barnyard grass, Echinochloa crusgalli; experiment: as above; conditions: 10 kg/ha soil drench; assessed visually thirteen days after drenching; 0-9 scale, 0 = growth as untreated control, 9 = death
Description: as §1, §2, §3, §4, §5, §6

oat, Avena sativa [19] = experiment: as above; conditions: 10 kg/ha soil drench; assessed visually thirteen days after drenching; 0-9 scale, 0 = growth as untreated control, 9 = death
Description: as §1, §2, §3, §4, §5, §6

soya bean, Glycine max [20] = experiment: as above; conditions: 10 kg/ha soil drench; assessed visually thirteen days after drenching; 0-9 scale, 0 = growth as untreated control, 9 = death
Description: as §1, §2, §3, §4, §5, §6

mustard, Sinapsis alba [21] = experiment: as above; conditions: 10 kg/ha soil drench; assessed visually thirteen days after drenching; 0-9 scale, 0 = growth as untreated control, 9 = death
Description: as §1, §2, §3, §4, §5, §6

rice, Oryza sativa [22] = experiment: as above; conditions: 10 kg/ha soil drench; assessed visually thirteen days after drenching; 0-9 scale, 0 = growth as untreated control, 9 = death
Description: as §1, §2, §3, §4, §5, §6

[23] = system: sugar beet, Beta vulgaris; experiment: as above; conditions: 10 kg/ha soil drench; assessed visually thirteen days after drenching; 0-9 scale, 0 = growth as untreated control, 9 = death
Description: as §1, §2, §3, §4, §5, §6

[24] = system: linseed, Linum usitatissisum; experiment: as above; conditions: 10 kg/ha soil drench; assessed visually thirteen days after drenching; 0-9 scale, 0 = growth as untreated control, 9 = death
Description: as §1, §2, §3, §4, §5, §6

Row | SMILES | Foliar spray Mz (herbicidal effect rating) (maize, Zea mays [1]; Dosage 1 kg/ha) | Foliar spray Mz (herbicidal effect rating) (maize, Zea mays [1]; Dosage 5 kg/ha) | Foliar spray BG (herbicidal effect rating) ([2]; Dosage 1 kg/ha) | Foliar spray BG (herbicidal effect rating) ([2]; Dosage 5 kg/ha) | Foliar spray O (herbicidal effect rating) (oat, Avena sativa [3]; Dosage 1 kg/ha) | Foliar spray O (herbicidal effect rating) (oat, Avena sativa [3]; Dosage 5 kg/ha) | Foliar spray S (herbicidal effect rating) (soya bean, Glycine max [4]; Dosage 1 kg/ha) | Foliar spray S (herbicidal effect rating) (soya bean, Glycine max [4]; Dosage 5 kg/ha) | Foliar spray M (herbicidal effect rating) (mustard, Sinapsis alba [5]; Dosage 1 kg/ha) | Foliar spray M (herbicidal effect rating) (mustard, Sinapsis alba [5]; Dosage 5 kg/ha) | Foliar spray R (herbicidal effect rating) (rice, Oryza sativa [6]; Dosage 1 kg/ha) | Foliar spray R (herbicidal effect rating) (rice, Oryza sativa [6]; Dosage 5 kg/ha) | Foliar spray SB (herbicidal effect rating) ([7]; Dosage 1 kg/ha) | Foliar spray SB (herbicidal effect rating) ([7]; Dosage 5 kg/ha) | Foliar spray L (herbicidal effect rating) ([8]; Dosage 1 kg/ha) | Foliar spray L (herbicidal effect rating) ([8]; Dosage 5 kg/ha) | Pre-emergence Mz (herbicidal effect rating) (maize, Zea mays [9]; Dosage 1 kg/ha) | Pre-emergence Mz (herbicidal effect rating) (maize, Zea mays [9]; Dosage 5 kg/ha) | Pre-emergence BG (herbicidal effect rating) ([10]; Dosage 1 kg/ha) | Pre-emergence BG (herbicidal effect rating) ([10]; Dosage 5 kg/ha) | also measured
1 | CC(C)C1(C)NC(c2nc3cc4c(cc3cc2C(=O)[O-])OCO4)=NC1=O.[Na+] (stereo not shown) [Example 4, Sodivmt-2-(5-isopropyl-5-methyl-4-oxo-2-imidazolin-2-yl)-[1,3]-dioxolo[4,5-g] quinoline-3-carboxylic acid (salt)] | 4 | 6 | 7 | 8 | 4 | 4 | 2 | 3 | 8 | 8 | 4 | 4 | 7 | 8 | 6 | 6 | 8 | 8 | 8 | 8 | Pre-emergence O (herbicidal effect rating) (oat, Avena sativa [11]; Dosage 1 kg/ha): 5; Pre-emergence O (herbicidal effect rating) (oat, Avena sativa [11]; Dosage 5 kg/ha): 6; Pre-emergence S (herbicidal effect rating) (soya bean, Glycine max [12]; Dosage 1 kg/ha): 2; Pre-emergence S (herbicidal effect rating) (soya bean, Glycine max [12]; Dosage 5 kg/ha): 5; Pre-emergence M (herbicidal effect rating) (mustard, Sinapsis alba [13]; Dosage 1 kg/ha): 7; Pre-emergence M (herbicidal effect rating) (mustard, Sinapsis alba [13]; Dosage 5 kg/ha): 7; Pre-emergence R (herbicidal effect rating) (rice, Oryza sativa [14]; Dosage 1 kg/ha): 8; Pre-emergence R (herbicidal effect rating) (rice, Oryza sativa [14]; Dosage 5 kg/ha): 9; Pre-emergence SB (herbicidal effect rating) ([15]; Dosage 1 kg/ha): 8; Pre-emergence SB (herbicidal effect rating) ([15]; Dosage 5 kg/ha): 8; Pre-emergence L (herbicidal effect rating) ([16]; Dosage 1 kg/ha): 8; Pre-emergence L (herbicidal effect rating) ([16]; Dosage 5 kg/ha): 9; Soil drench 10/kg/ha Mz (herbicidal effect rating) (maize, Zea mays [17]): 5; Soil drench 10/kg/ha BG (herbicidal effect rating) [18]: 8; Soil drench 10/kg/ha O (herbicidal effect rating) (oat, Avena sativa [19]): 4; Soil drench 10/kg/ha S (herbicidal effect rating) (soya bean, Glycine max [20]): 6; Soil drench 10/kg/ha M (herbicidal effect rating) (mustard, Sinapsis alba [21]): 8; Soil drench 10/kg/ha R (herbicidal effect rating) (rice, Oryza sativa [22]): 5; Soil drench 10/kg/ha SB (herbicidal effect rating) [23]: 8; Soil drench 10/kg/ha L (herbicidal effect rating) [24]: 6
2 | COC(=O)c1cc2cc3c(cc2nc1C1=NC(=O)C(C)(C(C)C)N1)OCO3 (stereo not shown) [Example 1, Methyl-2-(5-i.saprapyl-5-methyl-4-oxo-2-imidazolin-2-yl)-[1,3]-dioxolo[4,5-g] quinoline-3-carboxylate] | 5 | 7 | 4 | 7 | 5 | 6 | 0 | 2 | 5 | 7 | 4 | 6 | 6 | 8 | 6 | 7 | 5 | 7 | 5 | 8 | Pre-emergence O (herbicidal effect rating) (oat, Avena sativa [11]; Dosage 1 kg/ha): 5; Pre-emergence O (herbicidal effect rating) (oat, Avena sativa [11]; Dosage 5 kg/ha): 7; Pre-emergence S (herbicidal effect rating) (soya bean, Glycine max [12]; Dosage 1 kg/ha): 0; Pre-emergence S (herbicidal effect rating) (soya bean, Glycine max [12]; Dosage 5 kg/ha): 0; Pre-emergence M (herbicidal effect rating) (mustard, Sinapsis alba [13]; Dosage 1 kg/ha): 4; Pre-emergence M (herbicidal effect rating) (mustard, Sinapsis alba [13]; Dosage 5 kg/ha): 7; Pre-emergence R (herbicidal effect rating) (rice, Oryza sativa [14]; Dosage 1 kg/ha): 4; Pre-emergence R (herbicidal effect rating) (rice, Oryza sativa [14]; Dosage 5 kg/ha): 8; Pre-emergence SB (herbicidal effect rating) ([15]; Dosage 1 kg/ha): 6; Pre-emergence SB (herbicidal effect rating) ([15]; Dosage 5 kg/ha): 6; Pre-emergence L (herbicidal effect rating) ([16]; Dosage 1 kg/ha): 6; Pre-emergence L (herbicidal effect rating) ([16]; Dosage 5 kg/ha): 7; Soil drench 10/kg/ha Mz (herbicidal effect rating) (maize, Zea mays [17]): 6; Soil drench 10/kg/ha BG (herbicidal effect rating) [18]: 7; Soil drench 10/kg/ha O (herbicidal effect rating) (oat, Avena sativa [19]): 6; Soil drench 10/kg/ha S (herbicidal effect rating) (soya bean, Glycine max [20]): 4; Soil drench 10/kg/ha M (herbicidal effect rating) (mustard, Sinapsis alba [21]): 8; Soil drench 10/kg/ha R (herbicidal effect rating) (rice, Oryza sativa [22]): 7; Soil drench 10/kg/ha SB (herbicidal effect rating) [23]: 7; Soil drench 10/kg/ha L (herbicidal effect rating) [24]: 6
3 | CC(C)C1(C)NC(c2cc3c(cc2C(=O)O)OCO3)=NC1=O (stereo not shown) [Example 7, 2-(5-isopropyl-5-methyl-4-oxo-2-imidazolin-2-yl)-[1,3]-dioxolo [4,5-d]benzoic acid] | 2 | 3 | 5 | 6 | 1 | 2 | 0 | 4 | 7 | 7 | 2 | 3 | 6 | 7 | 3 | 4 | 1 | 6 | 3 | 7 | Pre-emergence O (herbicidal effect rating) (oat, Avena sativa [11]; Dosage 1 kg/ha): 0; Pre-emergence O (herbicidal effect rating) (oat, Avena sativa [11]; Dosage 5 kg/ha): 5; Pre-emergence S (herbicidal effect rating) (soya bean, Glycine max [12]; Dosage 1 kg/ha): 0; Pre-emergence S (herbicidal effect rating) (soya bean, Glycine max [12]; Dosage 5 kg/ha): 1; Pre-emergence M (herbicidal effect rating) (mustard, Sinapsis alba [13]; Dosage 1 kg/ha): 4; Pre-emergence M (herbicidal effect rating) (mustard, Sinapsis alba [13]; Dosage 5 kg/ha): 7; Pre-emergence R (herbicidal effect rating) (rice, Oryza sativa [14]; Dosage 1 kg/ha): 8; Pre-emergence R (herbicidal effect rating) (rice, Oryza sativa [14]; Dosage 5 kg/ha): 9; Pre-emergence SB (herbicidal effect rating) ([15]; Dosage 1 kg/ha): 7; Pre-emergence SB (herbicidal effect rating) ([15]; Dosage 5 kg/ha): 8; Pre-emergence L (herbicidal effect rating) ([16]; Dosage 1 kg/ha): 3; Pre-emergence L (herbicidal effect rating) ([16]; Dosage 5 kg/ha): 7
